Values quoted from earlier work as cited in patent US12097208B2, “Method for treating nasal, sinonasal, and nasopharyngeal tissue infection and/or inflammation” (OTICARA, INC., priority 2019, dated 2024).

What was measured:
[1] = in vivo
[2] = tested on: Steptococci
[3] = tested on: Corynebacteria
[4] = tested on: Staphylococci
[5] = tested on: Gardnerella vaginalis
[6] = tested on: Pseudomonas aeruginosa

| Biological Half Life [1] | Structure (SMILES) | further results |
| --- | --- | --- |
| 36-54 Hours | CCC(=O)OCC(=O)[C@@]1(OC(=O)CC)[C@@H](C)C[C@H]2C3CCC4=CC(=O)C=CC4(C)[C@@]3(F)[C@@H](O)CC21C (stereo partly drawn) [Betamethasone dipropionate, 9-Fluoro-11β,17,21-trihydroxy-16β-methylpregna-1,4-diene-3,20-dione 17,21-dipropionate] | – |
| 18-36 Hours | C[C@H]1C[C@@H]2[C@H]([C@@H](O)C[C@@]3(C)[C@H]2CC[C@]3(O)C(=O)CO)[C@@]2(C)C=CC(=O)C=C12 [Methyl-prednisolone] | – |
| – | Clc1ccccc1C(c1ccccc1)(c1ccccc1)n1ccnc1 [clotrimazole] | Antibacterial activity against Steptococci [2]: antibacterial activity; Antibacterial activity against Corynebacteria [3]: antibacterial activity; Antibacterial activity against Staphylococci [4]: antibacterial activity; Antibacterial activity against Gardnerella vaginalis [5]: antibacterial activity; Effect on Pseudomonas aeruginosa [6]: reduction |
| 8-12 Hours | C[C@]12CCC(=O)C=C1CC[C@@H]1[C@@H]2[C@@H](O)C[C@@]2(C)[C@H]1CC[C@]2(O)C(=O)CO [hydrocortisone] | – |
| 18-36 Hours | C[C@]12C=CC(=O)C=C1CC[C@@H]1[C@@H]2[C@@H](O)C[C@@]2(C)[C@H]1CC[C@]2(O)C(=O)CO [prednisolone] | – |
| 18-36 Hours | C[C@]12C=CC(=O)C=C1CC[C@H]1[C@@H]3C[C@@H](O)[C@](O)(C(=O)CO)[C@@]3(C)C[C@H](O)[C@@]12F [triamcinolone] | – |
